Several values for one entry are separate records, joined by “and”; a condition that tells them apart may be missing. Equal values may be shown once. Where a SMILES comes first, the peptide text is derived from it. [ ]: non-standard residue; d: D form. Dmt = Cc1cc(O)cc(C)c1C[C@H](N)C(=O)O
Tests used:
dystrophin = assay: Western blot of dystrophin in tibialis anterior (TA) muscle of treated mdx mice; format: in vivo, mouse (C57BL/10ScSn-Dmdmdx/J; conditions: 7 weeks; for % Dystrophin Average: average of treatment group (n=14-15 mdx mice); for % Dystrophin: individual mdx mouse
Procedure: (§1) Treatment groups. Four-week-old C57BL/10ScSnJ (stock #000476) and C57BL/10ScSn-Dmdmdx/J mice (stock #001801) were sourced from Jackson Laboratory in Bar Harbor, USA and sorted into a total of five treatment groups (Table 1). The C57BL/10ScSnJ (BL10) mice received vehicle #1 (1×PBS) and vehicle #2 (0.9% Saline). Of the C57BL/10ScSn-Dmdmdx/J (mdx) groups, one received vehicle #1(1×PBS) and vehicle #2 (0.9% Saline), the second group was treated with PMO (125 mg/kg) and vehicle #2 (0.9% Saline), the third group was treated with vehicle #1 (1×PSB) and MTP-131 (5 mg/kg), and the final group was treated with both PMO (125 mg/kg) and MTP-131 (5 mg/kg). PMO compound and the respective vehicle (1×PBS) was administered weekly via retro-orbital injection. MTP-131 compound and the vehicle (0.9% saline) were administered daily via intraperitoneal (IP) injection. Treatment was for a total of 7 weeks.
Experimental endpoint measures. Upon arrival from Jackson laboratory to the Life Science Research Institute (LSRI) animal facility in Halifax, Canada, 4 week-old BL10 and mdx mice were subjected to a one-week acclimation period to the new facility, after which they were weighed, ear-tagged, and randomized. Once randomized, the animals were treated daily for 7 weeks. During treatment, mice were visually assessed for health (altered food and water consumption, abnormal breathing, circling, eye/hair matting and any other features of abnormal appearance). All treatment groups followed the experimental design outlined in Table 2. In vitro force measurements and takedowns were performed throughout weeks 6-7. Takedowns were staggered to accommodate the in vitro force schedule. Scheduling was representative of the treatment groups.
Treatment preparation—PMO. The phosphorodiamidate morpholino oligomer (PMO) was sourced from Gene Tools, LLC. The PMO used was mExon 23(+07-18) (5′-[…]-3′) (SEQ ID NO: 1) against the boundary sequences of exon and intron 23 of the mouse dystrophin gene. The PMO was prepared fresh weekly by diluting the compound in 1×PBS to the stock concentration of 100 mg/ml. Any remaining compound was stored at 4° C.
Treatment preparation—MTP-131. MTP-131 dosing formulation was prepared weekly and filtered through a […] polyether sulfone (PES) filter. Because MTP-131 is extremely hygroscopic it was conditioned before use and weighed immediately after. If possible, MTP-131 was weighed in a low moisture environment (<20% RH). Prior to use, MTP-131 was removed from the refrigerator. The un-opened bottle was placed in a low moisture environment (<20% RH) and allowed to equilibrate at room temperature for at least 2 hours. Quickly, an aliquot was weighed for use without returning any un-used standard to the bottle and the bottle was immediately tightly capped. Immediately after use, the inside of the bag was wiped with a paper towel to remove any moisture, and the reference bottle (tightly capped) was placed back into the aluminum bag, re-sealed and placed back in 2-8° C. storage.
Treatment administration—PMO. PMO compound was delivered weekly via retro-orbital intravenous injection using a 28-gauge needle. Mice were gently removed from their cage and anesthetized using 5% isoflurane and maintained with 1.5-2% isoflurane. Once the pedal reflex was absent, the mouse was positioned on its side, and loose skin behind the shoulders and ears pinned back using the thumb and middle finger of the non-dominant hand. The skin surrounding the eye was drawn back using the index finger, allowing the eye to protrude slightly. The needle was inserted carefully at a 30° angle with the bevel away from the eye, lateral to the medial canthus, through the conjunctival membrane. Once in the retro-orbital sinus, the compound was slowly injected (10 μl/5-10 seconds). The needle was then carefully removed to prevent injury and leakage. If more than 20 μl of leakage occurred, the injectable was aspirated back into the syringe and injected again. […]

[1] = system: C57BL/10ScSn-Dmdmdx/J (mdx) mice; assay: H&E inflammation analysis of TA muscle sections; format: in vivo, mouse; conditions: as compared to the mdx vehicle group; PMO 125 mg/kg, MTP-131 5 mg/kg
Procedure: as §1
Histological analysis—H&E—Inflammation Analysis. TA muscle (n=8/group) was sectioned at 10 μm (2 sections/slide) and stored at −80° C. until the staining was performed. Slides were stained with Hematoxylin & Eosin (H&E) and were analyzed for percent inflammation. An inflammatory focus (pl. foci) was measured by counting 10 or more inflammatory cells in a single cluster. These foci areas were measured in mm2 and then compared to the tissue's total area, from which a percentage was calculated. […]

[2] = PMO 125 mg/kg weekly, MTP-131 5 mg/kg daily
[3] = Run 1, Gel #5, PMO 125 mg/kg weekly retro-orbital, MTP-131 5 mg/kg daily IP
[4] = Run 1, Gel #6, PMO 125 mg/kg weekly, MTP-131 5 mg/kg daily
[5] = Run 2, Gel #7, PMO 125 mg/kg weekly, MTP-131 5 mg/kg daily
[6] = Run 2, Gel #8, PMO 125 mg/kg weekly, MTP-131 5 mg/kg daily
[7] = Run 3, Gel #9, PMO 125 mg/kg weekly, MTP-131 5 mg/kg daily
[8] = Run 3, Gel #10, PMO 125 mg/kg weekly, MTP-131 5 mg/kg daily

## PMO: phosphorodiamidate morpholino oligomer mExon 23(+07-18), 5′-GGCCAAACCTCGGCTTACCTGAAAT-3′ (SEQ ID NO: 1), against exon/intron 23 boundary of mouse dystrophin gene; Gene Tools (all phosphorodiamidate morpholino (PMO)) [reference compound]
dystrophin; [2]
  % Dystrophin Average: 3.66%
dystrophin; [3]
  % Dystrophin: 6.0% and 4.2%
dystrophin; [4]
  % Dystrophin: 4.7% and 2.7%
dystrophin; [5]
  % Dystrophin: 1.2% and 1.7% and 7.4%
dystrophin; [6]
  % Dystrophin: 3.2% and 1.4%
dystrophin; [7]
  % Dystrophin: 1.4% and 3.9%
dystrophin; [8]
  % Dystrophin: 3.1% and 2.9% and 7.2%
[1]
  inflammation in the tibialis anterior muscles: reduced

## Cc1cc(O)cc(C)c1C[C@H](NC(=O)[C@H](N)CCCNC(=N)N)C(=O)N[C@@H](CCCCN)C(=O)N[C@@H](Cc1ccccc1)C(N)=O [MTP-131, H-D-Arg-2′6′-Dmt-Lys-Phe-NH2] (H-[dR][Dmt]KF-NH2)
dystrophin; [2]
  % Dystrophin Average: 0.70%
dystrophin; [3]
  % Dystrophin: 0.3% and 0.4% and 0.6%
dystrophin; [4]
  % Dystrophin: 1.0% and 1.2%
dystrophin; [5]
  % Dystrophin: 0.8%
dystrophin; [6]
  % Dystrophin: 0.8%
dystrophin; [7]
  % Dystrophin: 1.0%
dystrophin; [8]
  % Dystrophin: 0%
dystrophin; summary by treatment group, PMO 125 mg/kg weekly, MTP-131 5 mg/kg daily
  % Dystrophin: 1.00% (3×) and 1.10% and 0.00% (2×) and 0.80% (4×) and 0.30% and 0.40% and 0.60% and 1.20%
[1]
  inflammation in the tibialis anterior muscles: reduced
